These results are taken from PMC8237038 (Acta Pharmacologica Sinica, 2021).

Series [1] concerns the target T1, CYP3A (Homo sapiens, UniProt P08684). As to conditions: for inhibitory effects against CYP3A: microsomes.
The target of series [2] is T1, CYP3A. The series is described as follows: in vitro. As to conditions: microsomes.
The subject of series [3] is CYP3A. The series is described as follows: in vitro. As to conditions: human, human liver microsomes, pH 7.4, probe testosterone (6β-hydroxylation). (In general: Microsomes from liver hold many membrane-bound enzymes, among them those of drug oxidation.)
Series [4] in a line: Pharmacokinetic interactions between HEJG and lopinavir in rats. As to conditions: lopinavir in rat plasma; for AUC(0-inf) / Cmax: male, Sprague-Dawley, rat, plasma, po, 160 mg/kg.
Setting [5] is: pH 7.4, Time-dependent inhibition IC50 Preincubation for 3 min.
Where [6] appears, read: pH 7.4, Time-dependent inhibition IC50 Preincubation for 33 min.
[7] abbreviates: HEJG (3 g/kg, i.g.) + lopinavir (160 mg/kg, i.g.).
Where [8] appears, read: Water + lopinavir (160 mg/kg, i.g.), control group.

T1 sequence (P08684 2-503): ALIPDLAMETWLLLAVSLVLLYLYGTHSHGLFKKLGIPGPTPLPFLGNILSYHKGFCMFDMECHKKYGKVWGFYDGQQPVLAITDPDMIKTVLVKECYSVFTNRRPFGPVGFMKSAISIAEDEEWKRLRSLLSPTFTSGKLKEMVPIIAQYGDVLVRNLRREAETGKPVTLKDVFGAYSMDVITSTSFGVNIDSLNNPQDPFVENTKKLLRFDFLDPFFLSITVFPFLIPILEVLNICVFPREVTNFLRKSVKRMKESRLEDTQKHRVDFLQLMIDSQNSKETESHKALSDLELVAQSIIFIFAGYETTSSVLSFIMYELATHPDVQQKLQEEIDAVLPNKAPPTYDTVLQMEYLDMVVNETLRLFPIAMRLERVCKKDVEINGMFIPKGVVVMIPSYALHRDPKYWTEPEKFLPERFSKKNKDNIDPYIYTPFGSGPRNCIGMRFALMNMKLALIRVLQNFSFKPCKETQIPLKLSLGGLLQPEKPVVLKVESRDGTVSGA

Consider `O=C(O)/C=C/c1ccc(O)c(O)c1` [Caffeic acid], for which the “inhibitory effects against CYP3A” value in series [1] is “weak inhibitory effects”. Besides, the IC50 in series [2] (setting [5]) and in series [2] (setting [6]) was > 100 µM in each case.

Turning to `O=C(/C=C/c1ccc(O)c(O)c1)O[C@@H]1C[C@](O)(C(=O)O)C[C@@H](O)[C@H]1O` [Chlorogenic acid], the “inhibitory effects against CYP3A” value in series [1] is reported as “weak inhibitory effects”. The concentration for half-maximal inhibition (IC50) in series [2] (setting [5]) and in series [2] (setting [6]) was > 100 µM in each case.

As for `COc1cc(O)ccc1/C=C/C(=O)c1ccc(O)cc1` [Echinatin], the Ratio in series [1] (constituents, IC50 3 min / 33 min preincubation) worked out at 3.20. The IC50 in series [3] (Time-dependent inhibition IC50 Preincubation for 3 min, constituents, HLMs, 3 min preincubation) is 25.9 ± 3.19 µM; in series [3] (Time-dependent inhibition IC50 Preincubation for 33 min, constituents, HLMs, 33 min preincubation) it was 8.08 ± 0.56 µM.

For `O=c1c(O)c(-c2ccc(O)cc2)oc2cc(O)cc(O)c12` [Kaempferol], in series [2] (pH 7.4), the IC50 shift was 2.01. Moreover, the IC50 is 13.1 ± 1.29 µM in series [2] (setting [5]) and 6.53 ± 0.31 µM in series [2] (setting [6]).

Molecule `O=c1c(O)c(-c2ccc(O)c(O)c2)oc2cc(O)cc(O)c12` [Quercetin] gave an IC50 in series [3] of 3.95 ± 0.31 µM.

For the molecule `Cc1cccc(C)c1OCC(=O)N[C@@H](Cc1ccccc1)[C@@H](O)C[C@H](Cc1ccccc1)NC(=O)[C@H](C(C)C)N1CCCNC1=O` [lopinavir], in series [4] (setting [7]), the t1/2 was 2.68 ± 0.45 h, the AUC(0-inf) turned out to be 10200 ± 1570 ng·h/mL and the Cmax is 1860 ± 215 ng/mL. Moreover, in series [4] (setting [8]), the AUC(0-inf) is 4190 ± 131 ng·h/mL and the Cmax was found to be 1280 ± 55 ng/mL.

The IC50 is the concentration needed to halve the response being measured. A higher IC50 goes with lower potency. As usually defined, the AUC(0-inf) is total exposure, with the tail of the curve extrapolated. A word on the Cmax: it is the highest concentration seen after dosing.
